ChEMBL document CHEMBL1201862, “PubChem BioAssay data set” (2004)
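48-hour exposure; five concentrations; linearly interpolated endpoints. The concentration for 50% growth inhibition is given as GI50.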 The source made the active and inactive calls. No stated cut-off is given here; in the data, active = GI50 up to about 1.1 µM and inactive = higher.

How the values were obtained:
Test in all cases: NCI anticancer screen, dose series, 48 h
[1] = system: TK-10
[2] = system: A498
[3] = system: CAKI-1
[4] = system: SF-539
[5] = system: NCI-H226
[6] = system: MDA-MB-435
[7] = system: ACHN
[8] = system: SK-MEL-5
[9] = system: A549
[10] = system: UACC-62
[11] = system: PC-3
[12] = system: MDA-N
[13] = system: OVCAR-8
[14] = system: U-251
[15] = system: RPMI-8226
[16] = system: UO-31
[17] = system: HCC 2998
[18] = system: 786-0
[19] = system: RXF 393
[20] = system: SK-OV-3

Structure (SMILES)	GI50 [1]	GI50 [2]	GI50 [3]	GI50 [4]	GI50 [5]	GI50 [6]	GI50 [7]	GI50 [8]	GI50 [9]	GI50 [10]	GI50 [11]	GI50 [12]	GI50 [13]	GI50 [14]	GI50 [15]	GI50 [16]	GI50 [17]	GI50 [18]	GI50 [19]	GI50 [20]
C/C(NC(=O)c1ccccc1)=C(/C(=O)c1ccccc1)[C@@H]1OC(C)(C)O[C@@H]1[C@H]1COC(C)(C)O1	77.6 µM (inactive)	86.1 µM (inactive)	29.3 µM (inactive)	54 µM (inactive)	33 µM (inactive)	19.5 µM (inactive)	67.3 µM (inactive)	16.3 µM (inactive)	29.9 µM (inactive)	39.4 µM (inactive)	30.4 µM (inactive)	18.6 µM (inactive)	29.2 µM (inactive)	30.9 µM (inactive)	14.9 µM (inactive)	15.5 µM (inactive)	23.9 µM (inactive)	18.3 µM (inactive)	30.2 µM (inactive)	–
COC(=O)C1=C(C)NC(C)=C(C(=O)OC)C1c1cccc(NO)c1	14.2 µM (inactive)	> 100 µM (inactive)	13.2 µM (inactive)	17.4 µM (inactive)	15.2 µM (inactive)	16.8 µM (inactive)	12.8 µM (inactive)	15.5 µM (inactive)	> 100 µM (inactive)	17.5 µM (inactive)	15 µM (inactive)	15.1 µM (inactive)	16.4 µM (inactive)	16.1 µM (inactive)	> 100 µM (inactive)	11.5 µM (inactive)	56.8 µM (inactive)	15 µM (inactive)	13.9 µM (inactive)	> 100 µM (inactive)
Cc1ccc(-c2cc(-c3ccc(Cl)cc3)nc(/N=C3\C(=O)N(CN4CCOCC4)c4ccc(Cl)cc43)n2)cc1	26.4 µM (inactive)	20.5 µM (inactive)	23 µM (inactive)	23 µM (inactive)	54.1 µM (inactive)	24.4 µM (inactive)	19.9 µM (inactive)	18.1 µM (inactive)	27.2 µM (inactive)	19.8 µM (inactive)	30 µM (inactive)	32.6 µM (inactive)	20.9 µM (inactive)	17.7 µM (inactive)	0.0139 µM (active)	24.9 µM (inactive)	19.1 µM (inactive)	22 µM (inactive)	13.8 µM (inactive)	35.6 µM (inactive)
C/C(CC/C(C)=N/O)=N\O	> 100 µM (inactive)	> 100 µM (inactive)	> 100 µM (inactive)	> 100 µM (inactive)	> 100 µM (inactive)	> 100 µM (inactive)	> 100 µM (inactive)	> 100 µM (inactive)	> 100 µM (inactive)	> 100 µM (inactive)	> 100 µM (inactive)	> 100 µM (inactive)	> 100 µM (inactive)	> 100 µM (inactive)	> 100 µM (inactive)	> 100 µM (inactive)	> 100 µM (inactive)	> 100 µM (inactive)	> 100 µM (inactive)	> 100 µM (inactive)
Oc1cc2c3c(c1)CCCN3CCC2	> 10 µM (inactive)	> 10 µM (inactive)	> 10 µM (inactive)	> 10 µM (inactive)	> 10 µM (inactive)	> 10 µM (inactive)	> 10 µM (inactive)	> 10 µM (inactive)	> 10 µM (inactive)	> 10 µM (inactive)	> 10 µM (inactive)	> 10 µM (inactive)	> 10 µM (inactive)	> 10 µM (inactive)	> 10 µM (inactive)	–	> 10 µM (inactive)	> 10 µM (inactive)	> 10 µM (inactive)	> 10 µM (inactive)
CN(C)CCO/N=C1/C=C2CC[C@H]3[C@@H]4CC[C@H](O)[C@@]4(C)CC[C@@H]3[C@@]2(C)CC1	11.1 µM (inactive)	15.7 µM (inactive)	31.9 µM (inactive)	3.51 µM (inactive)	1.23 µM (inactive)	3.49 µM (inactive)	15.4 µM (inactive)	8.71 µM (inactive)	18.3 µM (inactive)	10.9 µM (inactive)	18.2 µM (inactive)	3.72 µM (inactive)	13.9 µM (inactive)	10.1 µM (inactive)	25.2 µM (inactive)	12.3 µM (inactive)	9.82 µM (inactive)	8.85 µM (inactive)	9.59 µM (inactive)	8.67 µM (inactive)
CC[C@]12C=CCN3CCC4(c5cc([C@@]6(C(=O)OC)CC7CN(CCc8c6[nH]c6ccccc86)CC6CCCCC67)c(OC)cc5N(C)C4[C@](O)(C(=O)OC)C1OC(C)=O)[C@@H]32 (some centres not stated)	0.0643 µM (active)	< 0.015 µM (active)	< 0.0252 µM (active)	< 0.01 µM (active)	< 0.01 µM (active)	< 0.01 µM (active)	< 0.0146 µM (active)	< 0.01 µM (active)	< 0.01 µM (active)	< 0.01 µM (active)	< 0.01 µM (active)	< 0.01 µM (active)	< 0.015 µM (active)	< 0.01 µM (active)	< 0.01 µM (active)	0.157 µM (active)	< 0.01 µM (active)	< 0.01 µM (active)	< 0.01 µM (active)	< 0.01 µM (active)
O=c1cc(N2CCOCC2)[nH]c(=O)n1-c1cccc(Cl)c1	> 100 µM (inactive)	32.4 µM (inactive)	> 100 µM (inactive)	> 100 µM (inactive)	> 100 µM (inactive)	> 100 µM (inactive)	> 100 µM (inactive)	–	–	> 100 µM (inactive)	> 100 µM (inactive)	> 100 µM (inactive)	> 100 µM (inactive)	> 100 µM (inactive)	> 100 µM (inactive)	–	> 100 µM (inactive)	> 100 µM (inactive)	> 100 µM (inactive)	> 100 µM (inactive)
COc1ccc(OC)c2c(Nc3ccc(S(=O)(=O)O)c4cc(S(=O)(=O)O)cc(S(=O)(=O)O)c34)cc(C)nc12	> 100 µM (inactive)	> 100 µM (inactive)	> 100 µM (inactive)	> 100 µM (inactive)	> 100 µM (inactive)	> 100 µM (inactive)	> 100 µM (inactive)	> 100 µM (inactive)	> 100 µM (inactive)	> 100 µM (inactive)	> 100 µM (inactive)	> 100 µM (inactive)	> 100 µM (inactive)	> 100 µM (inactive)	> 100 µM (inactive)	> 100 µM (inactive)	10.8 µM (inactive)	> 100 µM (inactive)	> 100 µM (inactive)	> 100 µM (inactive)
COc1cc2c(cc1O)c(O)cc1c3cc(OC)c(OC)cc3c[n+](C)c21	> 100 µM (inactive)	> 100 µM (inactive)	> 54 µM (inactive)	3.65 µM (inactive)	9.62 µM (inactive)	16.4 µM (inactive)	56.6 µM (inactive)	19 µM (inactive)	44 µM (inactive)	4.34 µM (inactive)	> 78.2 µM (inactive)	17.7 µM (inactive)	8.87 µM (inactive)	0.582 µM (active)	> 32.8 µM (inactive)	53.5 µM (inactive)	> 91 µM (inactive)	7.4 µM (inactive)	> 67.5 µM (inactive)	> 100 µM (inactive)
O=CCOCc1cc2c(cc1Br)OCO2	52.1 µM (inactive)	> 100 µM (inactive)	19.9 µM (inactive)	25.2 µM (inactive)	–	> 100 µM (inactive)	23.1 µM (inactive)	19.3 µM (inactive)	> 100 µM (inactive)	43.4 µM (inactive)	21.4 µM (inactive)	37.2 µM (inactive)	20.7 µM (inactive)	31 µM (inactive)	40.6 µM (inactive)	21.1 µM (inactive)	> 100 µM (inactive)	17.3 µM (inactive)	37 µM (inactive)	> 100 µM (inactive)
O=c1ccn(CC2(CO)CCC2)c(=O)[nH]1	> 100 µM (inactive)	> 100 µM (inactive)	> 100 µM (inactive)	> 100 µM (inactive)	> 100 µM (inactive)	> 100 µM (inactive)	> 100 µM (inactive)	> 100 µM (inactive)	> 100 µM (inactive)	> 100 µM (inactive)	> 100 µM (inactive)	> 100 µM (inactive)	> 100 µM (inactive)	> 100 µM (inactive)	> 100 µM (inactive)	> 100 µM (inactive)	> 100 µM (inactive)	> 100 µM (inactive)	> 100 µM (inactive)	> 100 µM (inactive)
CC1CC(=O)Nc2cc(Cl)ccc2N1C(=O)C1CC1 (configuration not stated)	> 100 µM (inactive)	> 100 µM (inactive)	> 100 µM (inactive)	> 100 µM (inactive)	> 100 µM (inactive)	> 100 µM (inactive)	> 100 µM (inactive)	> 100 µM (inactive)	> 100 µM (inactive)	–	> 100 µM (inactive)	> 100 µM (inactive)	> 100 µM (inactive)	> 100 µM (inactive)	> 100 µM (inactive)	> 100 µM (inactive)	> 100 µM (inactive)	> 100 µM (inactive)	> 100 µM (inactive)	> 100 µM (inactive)
Fc1ccc(NC(=S)SCc2ccc3c(c2)OCO3)cc1F	30.1 µM (inactive)	17.4 µM (inactive)	27.7 µM (inactive)	22.7 µM (inactive)	37.7 µM (inactive)	20.6 µM (inactive)	19.7 µM (inactive)	16 µM (inactive)	15.6 µM (inactive)	14.2 µM (inactive)	25.5 µM (inactive)	17.6 µM (inactive)	18.3 µM (inactive)	17.4 µM (inactive)	–	17 µM (inactive)	21.8 µM (inactive)	37.2 µM (inactive)	15.5 µM (inactive)	53.6 µM (inactive)
